Earlier results in patent US20250339390A1 (priority 2018, published 2025).

## O=NN(CCCl)C(=O)NCCCl [Carmustine, 1,3-bis(2-chloroethyl)-1-nitrosourea]
  solubility in water: poorly soluble
